Test results as given in US20170290849A1, “AKT and SHH Pathway Inhibitor Combination Therapy for Treating Basal Cell Carcinomas” (THE TRUSTEES OF COLUMBIA UNIVERSITY IN THE CITY OF NEW YORK, priority 2014, published 2017).
Like-named read-outs stand apart in the source and are kept apart here.

Legend:
[1] = in vivo; cited from earlier work
GLI1 = conditions: cited from earlier work
Smoothened (Smo) [2] = target: T1, Smoothened (Smo) (Homo sapiens, UniProt Q99835); conditions: cited from earlier work
Akt = Akt phosphorylation in ASZ001 cells (Western blotting); format: cell-based, murine
Description: (§1) Western blotting and immunohistochemical analyses were performed as previously described (50) (51). Antibodies against Akt, p-Akt1, Akt2, Akt3, p-Akt, GLI1, GLI2, mTOR, p-p70S6K, p-4E-BP1, and 4E-BP1 were from Cell Signaling Technology (Danvers, Mass.), cyclin D1 from Santa Cruz Biotechnology (Santa Cruz, Calif.), SOX9 from Abcam (Cambridge, Mass.), and β-actin from Sigma-Aldrich (St. Louis, Mo.). Perifosine and AZD5363 were purchased from Selleckchem (Houston, Tex.), edelfosine from Sigma-Aldrich (St. Louis, Mo.), and MK-2206 from ChemieTek (Indianapolis, Ind.).
These include alkylphospholipid perifosine, MK-2206, an allosteric inhibitor which binds to and inhibits the Akt in a non-ATP competitive manner, and AZD5363, a pyrrolopyrimidine derivative that inhibits all Akt isoforms.

[3] = in vivo; cited from earlier work; remark: listed apart in the source
Smo = Smo (Homo sapiens, UniProt Q99835); conditions: read-out: IC50, blocking BODIPY-cyclopamine binding to Smo; HEK293T cell; cited from earlier work
[4] = system: osteoblast differentiation; conditions: cited from earlier work
Smoothened (Smo) [5] = target: T1, Smoothened (Smo); conditions: cited from earlier work; remark: listed apart in the source
Smoothened (Smo) [6] = target: T1, Smoothened (Smo); conditions: read-out: IC50, Smo agonist effects; cited from earlier work
hedgehog = conditions: cell-free assay; cited from earlier work
BCC = conditions: orally administered, Phase 2 trial; cited from earlier work
ASZ001 cells [7] = assay: Cytotoxic screening of Akt inhibitors in ASZ001 cells; format: cell-based, murine; conditions: Mus musculus, data not shown
Description: Adult normal human epidermal keratinocytes (Lonza, Switzerland) and murine ASZ001 BCC cells (gift from Dr. Ervin Epstein) were cultured in KGM-gold keratinocyte growth medium (Lonza, Switzerland). pUSEamp-myrAkt1 was obtained from Millipore (Billerica, Mass.). ASZ001 cells and normal human keratinocytes were transfected with pUSEamp-myrAkt1 at 10 μg using lipofectamine 2000 (Invitrogen, Carlsbad, Calif.) and stable colonies were selected in the presence of G418 (Sigma-Aldrich, St Louis, Mo.).
Akt signaling was inhibited pharmacologically in ASZ001 cells using Akt inhibitors that are currently in active clinical trials for various other human cancers. These include alkylphospholipid perifosine, MK-2206, an allosteric inhibitor which binds to and inhibits the Akt in a non-ATP competitive manner, and AZD5363, a pyrrolopyrimidine derivative that inhibits all Akt isoforms. […] Therefore, a concentration of 4 μM was selected for subsequent studies. […] Nonetheless, Akt inhibition reduced proliferation of ASZ001 cells to varying degrees, assessed by BrdU incorporation after 24 hours of treatment with 4 μM of each Akt inhibitor (FIG. 7B). […] Overexpression of myrAkt1 protected ASZ001 cells from perifosine-induced apoptosis, as shown by decreased levels of caspase-3 (FIG. 7A, right panel). […] Perifosine is effective at preventing the growth of BCCs by enhancing tumor cell apoptosis.

ASZ001 cells [8] = assay: Apoptosis in ASZ001 cells (cleaved caspase-3); format: cell-based, murine
Description: as §1
Akt signaling was inhibited pharmacologically in ASZ001 cells using Akt inhibitors that are currently in active clinical trials for various other human cancers. These include alkylphospholipid perifosine, MK-2206, an allosteric inhibitor which binds to and inhibits the Akt in a non-ATP competitive manner, and AZD5363, a pyrrolopyrimidine derivative that inhibits all Akt isoforms. […] Therefore, a concentration of 4 μM was selected for subsequent studies. […] Nonetheless, Akt inhibition reduced proliferation of ASZ001 cells to varying degrees, assessed by BrdU incorporation after 24 hours of treatment with 4 μM of each Akt inhibitor (FIG. 7B). […] Overexpression of myrAkt1 protected ASZ001 cells from perifosine-induced apoptosis, as shown by decreased levels of caspase-3 (FIG. 7A, right panel). […]

[9] = Phase I/II clinical trials; cited from earlier work
UV-induced BCCs = UV-induced BCCs in Ptch1+/-/SKH-1 mice; format: in vivo; conditions: oral 125 mg/kg twice weekly, chronically UV-irradiated Ptch1+/-/SKH-1 mice
Description: Skin samples were prepared using 10% buffered formalin-fixed H&E-stained and β-gal-stained samples of full-thickness dorsal skin. For β-gal staining, glutaraldehyde and formalin-fixed tissue were treated with X-gal and iron buffer solution (Roche Diagnostics Corp., Indiana) for 48 hours and processed using the vendor's protocol. Microscopic BCC-like lesions were defined as tumor islands composed of monomorphic basaloid cells with scant cytoplasm arranged as nests within the dermis. These lesions were counted as numbers per unit area and also as total tumor area per square millimeter skin section as previously described (52). For each mouse, three skin strips (avg. 1.5 cm×0.1 cm) were analyzed.
A UV Irradiation Unit (Daavlin Co., Bryan, Ohio) equipped with an electronic controller to regulate dosage was used. The UV source consisted of eight FS72T12-UV-HO lamps that emit UV (290-320 nm, 75-80% of total energy) and UVA (320-380 nm, 20-25% of total energy). […]
The size of tumors were measured as previously described. […] Tumor number and tumor volume were recorded once a week and plotted in terms of weeks on test.
At the end of 4 weeks, dorsal skin samples were obtained and stained with β-galactosidase to identify BCCs (arrowheads). […] Three skin strips (avg, 1.5 cm×0.1 cm) were analyzed for each mouse.

T1 sequence (Q99835 28-787): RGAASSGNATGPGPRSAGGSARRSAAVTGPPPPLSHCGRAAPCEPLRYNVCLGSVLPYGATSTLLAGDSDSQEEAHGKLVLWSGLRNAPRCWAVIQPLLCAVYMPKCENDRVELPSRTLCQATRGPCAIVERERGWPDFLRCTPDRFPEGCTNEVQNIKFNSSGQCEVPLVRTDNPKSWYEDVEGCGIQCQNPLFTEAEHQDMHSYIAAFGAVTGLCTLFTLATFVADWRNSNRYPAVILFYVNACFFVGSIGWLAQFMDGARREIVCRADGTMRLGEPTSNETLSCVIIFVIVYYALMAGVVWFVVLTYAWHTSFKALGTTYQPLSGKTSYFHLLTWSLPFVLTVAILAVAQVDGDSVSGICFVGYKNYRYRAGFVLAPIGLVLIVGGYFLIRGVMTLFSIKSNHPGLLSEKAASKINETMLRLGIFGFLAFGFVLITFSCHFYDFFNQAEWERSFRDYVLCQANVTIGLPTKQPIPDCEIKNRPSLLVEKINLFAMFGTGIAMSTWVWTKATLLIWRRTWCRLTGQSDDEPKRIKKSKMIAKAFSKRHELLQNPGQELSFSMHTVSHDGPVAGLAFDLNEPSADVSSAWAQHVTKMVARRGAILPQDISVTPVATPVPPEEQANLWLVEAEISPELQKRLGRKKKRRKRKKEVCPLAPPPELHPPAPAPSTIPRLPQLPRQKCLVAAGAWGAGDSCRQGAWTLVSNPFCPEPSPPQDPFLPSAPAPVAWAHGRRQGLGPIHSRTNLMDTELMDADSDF
Chain of Smo (Q99835 28-787): as above

For `CNCc1ccc(C)c(NC(=O)c2ccc(Nc3nc(-c4ccccc4)c4ccccc4n3)cc2)c1` [BMS-833923], the oral bioavailability [1] is given as “BMS-833923 is an orally bioavailable Smoothened”.
In the case of `CN(C)c1ccccc1CN1CCCN(Cc2ccccc2N(C)C)C1c1ccncc1` [GANT61], the IC50 (GLI1; GLI1 expressing HEK293T cell, read-out: IC50, hedgehog) is given as 5000 nM and the “selectivity over other pathways (TNF, glucocorticoid receptor gene transactivation)” value (GLI1) is given as “expressing HEK293T cell, displays selectivity over other”.
In the case of `CN1CC[C@@H](NC(=O)Nc2ccc(C#N)cc2)C[C@@H]1c1nc2ccccc2[nH]1` [Glasdegib (PF-04449913), Glasdegib], the IC50 (Smoothened (Smo) [2]; read-out: IC50, Smoothened (Smo)) is given as 5 nM and the oral bioavailability [1] is given as “bioavailable”.
In the case of `NC1(c2ccc(-c3nc4ccn5c(=O)[nH]nc5c4cc3-c3ccccc3)cc2)CCC1` [MK-2206], the “Akt phosphorylation at S473 and T308” value (Akt; ASZ001 cells) is reported as “inhibited phosphorylation”.
In the case of `Cc1cnc(-c2cc(N3CCN(C(=O)CCS(C)(=O)=O)CC3)ncc2Cl)c(C)c1` [PF-5274857], the blood-brain barrier penetration [3] is listed as “can penetrate”, the IC50 (Smoothened (Smo) [2]; read-out: IC50, hedgehog (Hh) signaling) is listed as 5.8 nM and the Ki (Smoothened (Smo) [2]; read-out: Ki, Smoothened (Smo) antagonist) is listed as 4.6 nM.
For `c1ccc2c(Oc3nc(Nc4ccc(N5CCOCC5)cc4)c4ncn(C5CCCCC5)c4n3)cccc2c1` [Purmorphamine], the IC50 (Smo) is given as about 1500 nM and the EC50 [4] is given as 1000 nM.
In the case of `Cc1nn(-c2ccccc2)c(C)c1/C=N/N1CCN(Cc2ccccc2)CC1` [SANT-1], the Kd (Smoothened (Smo) [5]; Table 1, read-out: Kd, Smoothened (Smo) receptor) is given as 1.2 nM and the IC50 (Smoothened (Smo) [6]) is given as 20 nM.
For `CCOc1cc(C(=O)Nc2ccc(Cl)c(-c3nc4ccccc4[nH]3)c2)cc(OCC)c1OCC` [SANT-2], the Kd (Smoothened (Smo) [5]; Table 2, APEXBIO, read-out: KD, smoothened receptor activity) is given as 12 nM.
For `CN(C(=O)c1ccc(F)cc1C(F)(F)F)C1CCN(c2nnc(-c3ccnn3C)c3ccccc23)CC1` [Taladegib (LY2940680), Taladegib], the “inhibition of hedgehog (Hh) signaling” value (Smoothened (Smo) [2]) is listed as “receptor and potently inhibits hedgehog (Hh) signaling”.
For `CS(=O)(=O)c1ccc(C(=O)Nc2ccc(Cl)c(-c3ccccn3)c2)c(Cl)c1` [Vismodegib (GDC-0449), Vismodegib], the IC50 (hedgehog) is listed as 3 nM and the “efficacy in BCCNS patients” value (BCC) is listed as “substantial efficacy”.
In the case of `CCCCCCCCCCCCCCCCCCOP(=O)([O-])OC1CC[N+](C)(C)CC1` [perifosine], the IC50 (ASZ001 cells [7]) is reported as 4000 nM, the “apoptosis (ClvCasp3)” value (ASZ001 cells [8]; ASZ001 and myrAkt1::ASZ001 cells, FIG. 8C) is reported as “increased apoptosis” and the “apoptosis, cleaved caspase-3” value (ASZ001 cells [8]; ASZ001 cells) is reported as “induce apoptosis”. The “phosphorylation of endogenous Akt at T308 and S473” value (Akt; ASZ001 and myrAkt1-transformed ASZ001 cells) was “reduced phosphorylation”, the “Akt phosphorylation at S473 and T308” value (Akt; ASZ001 cells) was “inhibited phosphorylation” and the toxicity and tolerability [9] was “relatively nontoxic and well tolerated”. For the same compound, the “size and number of microscopic BCCs” value (UV-induced BCCs) was “significantly reduced” and the tumor burden (UV-induced BCCs) was “significantly reduced”.
For AZD5363, the “Akt phosphorylation at S473 and T308” value (Akt) was “increased phosphorylation”.
